Measurements as given in US11767310B2, “Nicotinamide RIPK1 inhibitors” (AbbVie Inc., priority 2021, dated 2023).
Read-outs that look alike come from different tables or passages of the source.

Tests used:
non-mutant kinases = test: Selectivity score (S-score) from kinase binding screen; design: species or system human; conditions: Screening Concentration 100 nM; 403 non-mutant kinases
Protocol: Based on the binding affinities in Table D, a selectivity score (S-score) was calculated for each compound as a quantitative measure of compound selectivity. The S-score is calculated by dividing the number of kinases that a compound binds to by the total number of distinct kinases tested, excluding mutant variants. The selectivity score value can be calculated using % Ctrl as a potency threshold, as shown below, and provides a quantitative method of describing compound selectivity to facilitate comparison of different compounds.
S(10)=(number of non-mutant kinases with % Ctrl<[…])/(number of non-mutant kinases tested).
[…]=(number of non-mutant kinases with % Ctrl<[…])/(number of non-mutant kinases tested).
[…]=(number of non-mutant kinases with % Ctrl<1)/(number of non-mutant kinases tested).

ACVR1 = ACVR1 (Homo sapiens (Human), UniProt Q04771); test: Kinase binding screen; conditions: read-out: Percent Control at 100 nM Compound Concentration
BMPR1A = BMPR1A (Homo sapiens (Human), UniProt P36894); test: Kinase binding screen; conditions: read-out: Percent Control at 100 nM Compound Concentration
CAMK2A = CAMK2A (Homo sapiens (Human), UniProt Q9UQM7); test: Kinase binding screen; conditions: read-out: Percent Control at 100 nM Compound Concentration
CASK = CASK (Homo sapiens (Human), UniProt O14936); test: Kinase binding screen; conditions: read-out: Percent Control at 100 nM Compound Concentration
CDK3 = CDK3 (Homo sapiens (Human), UniProt Q00526); test: Kinase binding screen; conditions: read-out: Percent Control at 100 nM Compound Concentration
EPHA1 = EPHA1 (Homo sapiens (Human), UniProt P21709); test: Kinase binding screen; conditions: read-out: Percent Control at 100 nM Compound Concentration
FGFR2 = FGFR2 (Homo sapiens (Human), UniProt P21802); test: Kinase binding screen; conditions: read-out: Percent Control at 100 nM Compound Concentration
FLT3-autoinhibited = FLT3-autoinhibited (Homo sapiens (Human), UniProt P36888); test: Kinase binding screen; conditions: read-out: Percent Control at 100 nM Compound Concentration
FRK = FRK (Homo sapiens (Human), UniProt P42685); test: Kinase binding screen; conditions: read-out: Percent Control at 100 nM Compound Concentration
HIPK3 = HIPK3 (Homo sapiens (Human), UniProt Q9H422); test: Kinase binding screen; conditions: read-out: Percent Control at 100 nM Compound Concentration
IKK-epsilon = IKK-epsilon (Homo sapiens (Human), UniProt Q14164); test: Kinase binding screen; conditions: read-out: Percent Control at 100 nM Compound Concentration
ITK = ITK (Homo sapiens (Human), UniProt Q08881); test: Kinase binding screen; conditions: read-out: Percent Control at 100 nM Compound Concentration
LIMK1 = LIMK1 (Homo sapiens (Human), UniProt P53667); test: Kinase binding screen; conditions: read-out: Percent Control at 100 nM Compound Concentration
LRRK2(G2019S) = LRRK2(G2019S) (Homo sapiens (Human), UniProt Q5S007, G2019S); test: Kinase binding screen; conditions: read-out: Percent Control at 100 nM Compound Concentration
MAP4K2 = MAP4K2 (Homo sapiens (Human), UniProt Q12851); test: Kinase binding screen; conditions: read-out: Percent Control at 100 nM Compound Concentration
MKNK2 = MKNK2 (Homo sapiens (Human), UniProt Q9HBH9); test: Kinase binding screen; conditions: read-out: Percent Control at 100 nM Compound Concentration
MST1R = MST1R (Homo sapiens (Human), UniProt Q04912); test: Kinase binding screen; conditions: read-out: Percent Control at 100 nM Compound Concentration
NEK4 = NEK4 (Homo sapiens (Human), UniProt P51957); test: Kinase binding screen; conditions: read-out: Percent Control at 100 nM Compound Concentration
NIM1 = NIM1 (Homo sapiens (Human), UniProt Q8IY84); test: Kinase binding screen; conditions: read-out: Percent Control at 100 nM Compound Concentration
PFTAIRE2 = PFTAIRE2 (Homo sapiens (Human), UniProt Q96Q40); test: Kinase binding screen; conditions: read-out: Percent Control at 100 nM Compound Concentration
PIK3CA(H1047Y) = PIK3CA(H1047Y) (Homo sapiens (Human), UniProt P42336, H1047Y); test: Kinase binding screen; conditions: read-out: Percent Control at 100 nM Compound Concentration
SGK2 = SGK2 (Homo sapiens (Human), UniProt Q9HBY8); test: Kinase binding screen; conditions: read-out: Percent Control at 100 nM Compound Concentration
SRPK3 = SRPK3 (Homo sapiens (Human), UniProt Q9UPE1); test: Kinase binding screen; conditions: read-out: Percent Control at 100 nM Compound Concentration
STK39 = STK39 (Homo sapiens (Human), UniProt Q9UEW8); test: Kinase binding screen; conditions: read-out: Percent Control at 100 nM Compound Concentration
TBK1 = TBK1 (Homo sapiens (Human), UniProt Q9UHD2); test: Kinase binding screen; conditions: read-out: Percent Control at 100 nM Compound Concentration

Sequence of LIMK1 (P53667 whole entry): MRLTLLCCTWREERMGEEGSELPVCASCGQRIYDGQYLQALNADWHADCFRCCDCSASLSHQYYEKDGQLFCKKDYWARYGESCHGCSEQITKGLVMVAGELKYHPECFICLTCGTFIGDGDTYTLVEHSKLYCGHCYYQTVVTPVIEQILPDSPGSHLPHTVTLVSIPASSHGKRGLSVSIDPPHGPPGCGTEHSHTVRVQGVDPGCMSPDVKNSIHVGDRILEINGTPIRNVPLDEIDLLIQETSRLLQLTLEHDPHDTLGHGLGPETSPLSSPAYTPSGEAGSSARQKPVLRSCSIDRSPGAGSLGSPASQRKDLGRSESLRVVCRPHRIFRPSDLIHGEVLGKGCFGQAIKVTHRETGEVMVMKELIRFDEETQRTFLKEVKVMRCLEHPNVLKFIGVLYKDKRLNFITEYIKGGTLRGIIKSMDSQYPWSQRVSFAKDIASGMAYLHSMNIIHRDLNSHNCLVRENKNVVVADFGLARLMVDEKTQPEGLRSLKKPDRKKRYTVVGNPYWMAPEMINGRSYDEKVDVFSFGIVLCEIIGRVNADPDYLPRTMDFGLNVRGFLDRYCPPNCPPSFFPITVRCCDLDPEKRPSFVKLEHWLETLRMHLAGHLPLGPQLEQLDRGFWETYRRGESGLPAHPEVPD
Sequence of FLT3-autoinhibited (P36888 564-993 limits assumed): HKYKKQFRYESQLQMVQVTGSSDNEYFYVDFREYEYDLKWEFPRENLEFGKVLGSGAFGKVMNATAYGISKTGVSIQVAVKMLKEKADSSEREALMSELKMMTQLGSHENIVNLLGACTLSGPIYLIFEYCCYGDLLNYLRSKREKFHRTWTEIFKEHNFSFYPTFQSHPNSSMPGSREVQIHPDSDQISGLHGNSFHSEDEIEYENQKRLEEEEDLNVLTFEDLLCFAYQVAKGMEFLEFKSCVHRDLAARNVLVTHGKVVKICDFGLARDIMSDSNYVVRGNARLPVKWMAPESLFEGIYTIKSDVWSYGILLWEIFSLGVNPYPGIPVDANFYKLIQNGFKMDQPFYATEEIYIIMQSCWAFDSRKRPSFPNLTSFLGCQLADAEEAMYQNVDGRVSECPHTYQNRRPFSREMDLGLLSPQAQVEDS
Sequence of SGK2 (Q9HBY8 whole entry): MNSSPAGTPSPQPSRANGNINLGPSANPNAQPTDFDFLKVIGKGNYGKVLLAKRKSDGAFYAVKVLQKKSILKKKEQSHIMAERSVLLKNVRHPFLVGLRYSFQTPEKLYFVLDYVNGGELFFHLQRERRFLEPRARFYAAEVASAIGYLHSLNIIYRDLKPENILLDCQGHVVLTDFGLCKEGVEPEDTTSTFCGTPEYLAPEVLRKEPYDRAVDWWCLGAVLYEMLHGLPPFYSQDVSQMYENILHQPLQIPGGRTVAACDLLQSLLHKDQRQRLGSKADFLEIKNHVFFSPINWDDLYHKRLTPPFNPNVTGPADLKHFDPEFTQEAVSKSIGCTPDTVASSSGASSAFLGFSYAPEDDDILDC
Sequence of CASK (O14936 whole entry): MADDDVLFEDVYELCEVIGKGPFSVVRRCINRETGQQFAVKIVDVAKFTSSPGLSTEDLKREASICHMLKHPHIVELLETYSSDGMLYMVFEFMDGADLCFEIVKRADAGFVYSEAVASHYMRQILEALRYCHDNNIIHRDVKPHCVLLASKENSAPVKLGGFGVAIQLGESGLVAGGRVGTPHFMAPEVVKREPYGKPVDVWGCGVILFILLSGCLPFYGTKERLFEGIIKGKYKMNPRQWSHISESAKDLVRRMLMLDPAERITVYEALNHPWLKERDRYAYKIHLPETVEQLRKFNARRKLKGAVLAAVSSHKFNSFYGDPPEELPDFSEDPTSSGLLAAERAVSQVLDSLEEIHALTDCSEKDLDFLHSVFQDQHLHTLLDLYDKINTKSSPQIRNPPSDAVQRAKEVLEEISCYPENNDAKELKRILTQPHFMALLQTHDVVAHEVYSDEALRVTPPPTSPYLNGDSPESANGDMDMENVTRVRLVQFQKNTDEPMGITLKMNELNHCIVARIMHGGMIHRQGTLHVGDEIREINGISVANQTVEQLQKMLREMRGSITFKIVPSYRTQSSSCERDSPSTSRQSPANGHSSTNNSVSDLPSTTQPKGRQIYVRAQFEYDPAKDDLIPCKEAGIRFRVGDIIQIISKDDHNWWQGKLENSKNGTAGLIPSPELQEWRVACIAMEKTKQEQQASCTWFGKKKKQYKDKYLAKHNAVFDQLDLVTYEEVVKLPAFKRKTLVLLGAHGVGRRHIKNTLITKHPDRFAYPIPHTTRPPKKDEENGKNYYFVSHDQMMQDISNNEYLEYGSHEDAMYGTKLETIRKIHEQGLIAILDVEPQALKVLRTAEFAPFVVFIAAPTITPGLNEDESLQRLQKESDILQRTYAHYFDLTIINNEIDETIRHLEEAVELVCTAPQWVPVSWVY
Sequence of NIM1 (Q8IY84 whole entry): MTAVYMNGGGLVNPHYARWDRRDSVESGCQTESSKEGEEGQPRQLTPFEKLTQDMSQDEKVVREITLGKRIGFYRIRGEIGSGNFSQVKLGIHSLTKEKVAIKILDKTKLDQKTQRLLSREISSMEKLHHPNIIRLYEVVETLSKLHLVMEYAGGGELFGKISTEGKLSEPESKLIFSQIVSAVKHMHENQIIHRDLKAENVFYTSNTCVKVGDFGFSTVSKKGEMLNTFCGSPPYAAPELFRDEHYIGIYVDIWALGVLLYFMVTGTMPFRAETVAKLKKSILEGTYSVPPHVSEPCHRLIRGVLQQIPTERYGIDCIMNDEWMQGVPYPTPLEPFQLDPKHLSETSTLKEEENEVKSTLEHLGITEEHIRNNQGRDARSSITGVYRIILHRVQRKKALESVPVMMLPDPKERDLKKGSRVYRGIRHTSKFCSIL
Sequence of ITK (Q08881 whole entry): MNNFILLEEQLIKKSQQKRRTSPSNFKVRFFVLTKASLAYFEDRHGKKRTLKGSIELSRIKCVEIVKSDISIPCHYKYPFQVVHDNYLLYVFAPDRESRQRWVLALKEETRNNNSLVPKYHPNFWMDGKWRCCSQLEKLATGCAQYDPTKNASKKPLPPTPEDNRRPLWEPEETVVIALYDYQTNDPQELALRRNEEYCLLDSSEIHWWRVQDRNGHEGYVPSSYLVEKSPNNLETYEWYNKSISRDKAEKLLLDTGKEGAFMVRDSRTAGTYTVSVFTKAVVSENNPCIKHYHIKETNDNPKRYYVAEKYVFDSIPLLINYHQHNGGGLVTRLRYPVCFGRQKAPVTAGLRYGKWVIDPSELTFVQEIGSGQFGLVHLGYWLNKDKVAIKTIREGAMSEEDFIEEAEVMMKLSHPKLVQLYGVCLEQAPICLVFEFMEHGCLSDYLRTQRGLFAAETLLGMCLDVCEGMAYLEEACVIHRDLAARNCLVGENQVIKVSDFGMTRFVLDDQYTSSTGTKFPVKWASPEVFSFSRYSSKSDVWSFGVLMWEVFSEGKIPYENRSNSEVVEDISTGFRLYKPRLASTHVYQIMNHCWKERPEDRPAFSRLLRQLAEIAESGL
Sequence of PFTAIRE2 (Q96Q40 whole entry): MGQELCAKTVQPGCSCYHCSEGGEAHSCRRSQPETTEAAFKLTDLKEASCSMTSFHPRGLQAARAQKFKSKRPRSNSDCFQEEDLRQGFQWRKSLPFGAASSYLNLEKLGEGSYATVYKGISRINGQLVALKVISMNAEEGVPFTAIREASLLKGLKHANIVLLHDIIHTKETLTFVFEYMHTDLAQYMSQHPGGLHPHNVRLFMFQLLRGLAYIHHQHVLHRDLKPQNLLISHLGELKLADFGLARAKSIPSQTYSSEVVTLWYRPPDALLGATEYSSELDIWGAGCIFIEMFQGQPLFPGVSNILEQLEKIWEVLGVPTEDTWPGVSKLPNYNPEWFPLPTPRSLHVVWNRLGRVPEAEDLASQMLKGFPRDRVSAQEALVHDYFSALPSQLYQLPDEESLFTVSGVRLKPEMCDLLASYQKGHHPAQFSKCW
Sequence of CAMK2A (Q9UQM7 whole entry): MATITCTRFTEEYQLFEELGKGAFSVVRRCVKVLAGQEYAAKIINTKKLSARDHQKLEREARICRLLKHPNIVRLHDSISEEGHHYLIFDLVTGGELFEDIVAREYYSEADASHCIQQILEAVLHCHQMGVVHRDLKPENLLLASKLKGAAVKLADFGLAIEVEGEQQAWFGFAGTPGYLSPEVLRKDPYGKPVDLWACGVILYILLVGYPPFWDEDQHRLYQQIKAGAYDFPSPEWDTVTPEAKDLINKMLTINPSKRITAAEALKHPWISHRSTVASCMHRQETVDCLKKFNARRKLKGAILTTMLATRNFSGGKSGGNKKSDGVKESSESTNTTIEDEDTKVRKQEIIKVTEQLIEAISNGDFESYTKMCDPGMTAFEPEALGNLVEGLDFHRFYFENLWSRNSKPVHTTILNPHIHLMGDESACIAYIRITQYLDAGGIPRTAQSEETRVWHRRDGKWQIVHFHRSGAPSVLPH
Sequence of CDK3 (Q00526 whole entry): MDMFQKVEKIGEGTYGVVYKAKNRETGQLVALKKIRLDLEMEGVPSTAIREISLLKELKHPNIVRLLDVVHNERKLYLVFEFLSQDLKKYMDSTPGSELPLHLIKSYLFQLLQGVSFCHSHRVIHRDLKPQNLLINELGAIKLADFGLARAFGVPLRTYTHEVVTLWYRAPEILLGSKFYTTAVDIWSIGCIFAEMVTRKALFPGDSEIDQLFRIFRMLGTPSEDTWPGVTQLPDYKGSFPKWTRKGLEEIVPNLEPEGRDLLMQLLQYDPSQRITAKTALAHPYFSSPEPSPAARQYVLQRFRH

Question: Which “Number of Hits S(1)” value (non-mutant kinases) does the source give for `CN(C[C@@H](O)Cc1ccccc1)C(=O)c1cncc(C#Cc2cnn(C(F)F)c2)c1` [Example 2, (S)-5-((1-(difluoromethyl)-1H-pyrazol-4-yl)ethynyl)-N-(2-hydroxy-3-phenylpropyl)-N-methylnicotinamide] here?
Answer: Its value is 0.

Question: And the “Number of Hits S(10)” value (non-mutant kinases)?
Answer: The value was 1.

Question: What about the “Number of Hits S(35)” value (non-mutant kinases) of the same compound?
Answer: Its value is 3.

Question: And the “Selectivity Score S(10)” value (non-mutant kinases)?
Answer: The value was 0.002.

Question: What about the “Selectivity Score S(35)” value (non-mutant kinases) of the same compound?
Answer: Its value is 0.007.

Question: What about the remaining activity at 0.1 µM (ACVR1; ACVR1) of the same compound?
Answer: The remaining activity at 0.1 µM was 100%.

Question: What about the remaining activity at 0.1 µM (BMPR1A; BMPR1A) of the same compound?
Answer: Its remaining activity at 0.1 µM is 86%.

Question: And the remaining activity at 0.1 µM (CAMK2A; CAMK2A)?
Answer: The remaining activity at 0.1 µM was 97%.

Question: And the remaining activity at 0.1 µM (CASK; CASK)?
Answer: The remaining activity at 0.1 µM was 99%.

Question: And the remaining activity at 0.1 µM (CDK3; CDK3)?
Answer: Its remaining activity at 0.1 µM is 100%.

Question: And the remaining activity at 0.1 µM (EPHA1; EPHA1)?
Answer: Its remaining activity at 0.1 µM is 100%.

Question: What about the remaining activity at 0.1 µM (FGFR2; FGFR2) of the same compound?
Answer: The remaining activity at 0.1 µM was 100%.

Question: And the remaining activity at 0.1 µM (FLT3-autoinhibited; FLT3-autoinhibited)?
Answer: Its remaining activity at 0.1 µM is 95%.

Question: And the remaining activity at 0.1 µM (FRK; FRK)?
Answer: Its remaining activity at 0.1 µM is 100%.

Question: What about the remaining activity at 0.1 µM (HIPK3; HIPK3) of the same compound?
Answer: Its remaining activity at 0.1 µM is 100%.

Question: What about the remaining activity at 0.1 µM (IKK-epsilon; IKK-epsilon) of the same compound?
Answer: Its remaining activity at 0.1 µM is 100%.

Question: What about the remaining activity at 0.1 µM (ITK; ITK) of the same compound?
Answer: The remaining activity at 0.1 µM was 99%.

Question: And the remaining activity at 0.1 µM (LIMK1; LIMK1)?
Answer: The remaining activity at 0.1 µM was 100%.

Question: What about the remaining activity at 0.1 µM (LRRK2(G2019S); LRRK2(G2019S)) of the same compound?
Answer: The remaining activity at 0.1 µM was 100%.

Question: What about the remaining activity at 0.1 µM (MAP4K2; MAP4K2) of the same compound?
Answer: Its remaining activity at 0.1 µM is 88%.

Question: What about the remaining activity at 0.1 µM (MKNK2; MKNK2) of the same compound?
Answer: Its remaining activity at 0.1 µM is 82%.

Question: And the remaining activity at 0.1 µM (MST1R; MST1R)?
Answer: Its remaining activity at 0.1 µM is 98%.

Question: And the remaining activity at 0.1 µM (NEK4; NEK4)?
Answer: The remaining activity at 0.1 µM was 100%.

Question: What about the remaining activity at 0.1 µM (NIM1; NIM1) of the same compound?
Answer: The remaining activity at 0.1 µM was 89%.

Question: And the remaining activity at 0.1 µM (PFTAIRE2; PFTAIRE2)?
Answer: Its remaining activity at 0.1 µM is 100%.

Question: What about the remaining activity at 0.1 µM (PIK3CA(H1047Y); PIK3CA(H1047Y)) of the same compound?
Answer: Its remaining activity at 0.1 µM is 71%.

Question: What about the remaining activity at 0.1 µM (SGK2; SGK2) of the same compound?
Answer: Its remaining activity at 0.1 µM is 100%.

Question: And the remaining activity at 0.1 µM (SRPK3; SRPK3)?
Answer: The remaining activity at 0.1 µM was 90%.

Question: And the remaining activity at 0.1 µM (STK39; STK39)?
Answer: Its remaining activity at 0.1 µM is 100%.

Question: And the remaining activity at 0.1 µM (TBK1; TBK1)?
Answer: Its remaining activity at 0.1 µM is 79%.

Question: Which results are given for `CN(C[C@H](Cc1ccccc1)OP(=O)(O)O)C(=O)c1cncc(C#Cc2cnn(C(F)F)c2)c1` [Example 19, (S)-1-(5-((1-(difluoromethyl)-1H-pyrazol-4-yl)ethynyl)-N-methylnicotinamido)-3-phenylpropan-2-yl dihydrogen phosphate]?
Answer: Number of Hits S(1) (non-mutant kinases): 0; Number of Hits S(10) (non-mutant kinases): 0; Number of Hits S(35) (non-mutant kinases): 0; remaining activity at 0.1 µM (ACVR1): 100%; remaining activity at 0.1 µM (BMPR1A): 94%; remaining activity at 0.1 µM (CAMK2A): 100%; remaining activity at 0.1 µM (CASK): 94%; remaining activity at 0.1 µM (CDK3): 100%; remaining activity at 0.1 µM (EPHA1): 100%; remaining activity at 0.1 µM (FGFR2): 100%; remaining activity at 0.1 µM (FLT3-autoinhibited): 96%; remaining activity at 0.1 µM (FRK): 100%; remaining activity at 0.1 µM (HIPK3): 88%; remaining activity at 0.1 µM (IKK-epsilon): 94%; remaining activity at 0.1 µM (ITK): 100%; remaining activity at 0.1 µM (LIMK1): 100%; remaining activity at 0.1 µM (LRRK2(G2019S)): 93%; remaining activity at 0.1 µM (MAP4K2): 83%; remaining activity at 0.1 µM (MKNK2): 79%; remaining activity at 0.1 µM (MST1R): 92%; remaining activity at 0.1 µM (NEK4): 100%; remaining activity at 0.1 µM (NIM1): 89%; remaining activity at 0.1 µM (PFTAIRE2): 100%; remaining activity at 0.1 µM (PIK3CA(H1047Y)): 72%; remaining activity at 0.1 µM (SGK2): 93%; remaining activity at 0.1 µM (SRPK3): 100%; remaining activity at 0.1 µM (STK39): 100%; remaining activity at 0.1 µM (TBK1): 84%
